Data on 30 compounds can be found in US20100249145A1, “Inhibitors of VEGF Receptor and HGF Receptor Signaling” (Methylgene, Inc., priority 2005, published 2010).

The test system of one test is DU145. Nature of the test: DU145 scattering inhibition (HGF dependent scattering). The class given is cell-based. The settings on record: Homo sapiens, DU-145, Table 31, read-out: DU145 scattering inhib IC50. An excerpt: (§1) HGF has well known activity in terms of inducing scattering and migration (wound healing) (Wells et al., Cell Motil Cytoskeleton. 2005 November 62(3):180-94; Miura et al., Urology 2001 December 58(6):1064-9; Nishimura et al., Int J. Urol. 1998 May 5(3):276-81; Wang et al., Mol Cancer Ther. 2003 November; 2(11):1085-92; and Christensen et al., Cancer Res. 2003 Nov. 1; 63(21):7345-55).

Another test has as its target T1, VEGF receptor KDR (Homo sapiens, UniProt P35968).
T1 construct: made in house; host or cells: Sf9 cells (Spodoptera frugiperda), recombinant baculovirus
Description: In vitro receptor tyrosine kinase assay (DELFIA), VEGF receptor KDR. The class given is biochemical. The note with it: Table 31; ATP 0.6 uM, enzyme 5 nM; read-out: VEGFR IC50. The text has this:
In Vitro Receptor Tyrosine Kinase Assays (c-Met/HGF receptor and VEGF Receptor KDR)
In the case of VEGF receptor KDR a 1.6-kb cDNA corresponding to the catalytic domain of VEGFR2 or KDR (Genbank accession number AF035121 amino acid 806 to 1356) was cloned into the Pst I site of the pDEST20 Gateway vector (Invitrogen) for the production of a GST-tagged version of that enzyme.
The GST-VEGFR2806-1356 protein was expressed in Sf9 cells (Spodoptera frugiperda) upon infection with recombinant baculovirus construct.
The supernatant was loaded onto a GST-agarose column (Sigma) equilibrated with PBS pH 7.3. Following a four column volume (CV) wash with PBS pH 7.3+1% Triton X-100 and 4 CV wash with buffer B (50 mM Tris pH 8.0, 20% glycerol and 100 mM NaCl), bound proteins were step eluted with 5 CV of buffer B supplemented with 5 mM DTT and 15 mM glutathion. […] Final GST-VEGFR2806-1356 protein preparations concentrations were about 0.7 mg/ml with purity approximating 70%.

A further test concerns A549. Nature of the test: A549 wound healing inhibition (HGF dependent migration). The class given is cell-based. The note with it: Homo sapiens, Table 31, read-out: A549 wound healing inbib IC50.
Source text: as §1

For test [1], the target named is T2, recombinant human c-Met/HGF receptor (Homo sapiens, UniProt P08581).
T2 construct: His tag (histidine tag from pBlueBacHis2A); made in house; host or cells: Hi-5 cells (Trichoplusia ni), recombinant baculovirus
T2 sequence (P08581 1078-1337): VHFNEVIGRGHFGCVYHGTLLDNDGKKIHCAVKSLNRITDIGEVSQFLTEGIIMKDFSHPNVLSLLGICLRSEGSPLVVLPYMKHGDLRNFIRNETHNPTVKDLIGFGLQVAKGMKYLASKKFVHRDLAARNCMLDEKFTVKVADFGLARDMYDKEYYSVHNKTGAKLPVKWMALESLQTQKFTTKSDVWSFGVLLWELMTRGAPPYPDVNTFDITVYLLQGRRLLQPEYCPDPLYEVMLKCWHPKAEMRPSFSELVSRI
Description: In vitro receptor tyrosine kinase assay (DELFIA), c-Met/HGF receptor. The settings on record: Table 31; ATP 10 uM, enzyme 25 nM; read-out: CMet ic50. Type of test: biochemical.

The structures appear in SMILES notation. Where only a bound is given, the exact number is not on record here.

T1 sequence (P35968 806-1356): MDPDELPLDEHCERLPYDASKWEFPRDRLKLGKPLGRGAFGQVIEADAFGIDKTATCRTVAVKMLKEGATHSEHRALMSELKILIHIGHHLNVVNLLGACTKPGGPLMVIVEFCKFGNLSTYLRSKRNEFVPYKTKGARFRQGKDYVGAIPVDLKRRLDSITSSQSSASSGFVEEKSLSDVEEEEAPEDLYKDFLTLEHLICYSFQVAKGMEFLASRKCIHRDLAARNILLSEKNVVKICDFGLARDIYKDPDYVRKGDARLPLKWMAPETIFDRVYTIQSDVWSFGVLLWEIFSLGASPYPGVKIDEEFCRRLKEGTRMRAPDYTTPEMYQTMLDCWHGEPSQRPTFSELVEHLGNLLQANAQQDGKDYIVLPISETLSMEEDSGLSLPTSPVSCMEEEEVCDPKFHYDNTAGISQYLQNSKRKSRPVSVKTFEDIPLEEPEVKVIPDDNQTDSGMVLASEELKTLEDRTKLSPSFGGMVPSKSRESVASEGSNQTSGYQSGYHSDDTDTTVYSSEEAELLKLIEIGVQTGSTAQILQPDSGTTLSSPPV

In the case of `CC(C(=O)NC(=S)Nc1ccc(Oc2ccnc3cc(-c4nccn4C)sc23)c(F)c1)c1ccccc1` (stereo not drawn), the 50% inhibitory concentration (IC50) with DU145 is below 1 µM; on VEGF receptor KDR, 0.05 to 0.25 µM; in the test with A549, below 1 µM; in test [1], 0.05 to 0.25 µM.

For the compound `C#Cc1ccccc1CC(=O)NC(=S)Nc1ccc(Oc2ccnc3cc(-c4ccc(CNCCOC)cn4)sc23)c(F)c1`, the IC50 was below 1 µM in the test with DU145, below 0.05 µM at VEGF receptor KDR, below 1 µM in the test with A549 and below 0.05 µM in test [1].

Regarding `Cn1ccnc1-c1cc2nccc(Oc3ccc(NC(=S)NC(=O)Cc4ccc(F)cc4F)cc3F)c2s1`, the IC50 in the test on DU145 was below 1 µM; on VEGF receptor KDR, below 0.05 µM; in the test with A549, below 1 µM; in test [1] it was below 0.05 µM.

Consider `C#Cc1ccc(CC(=O)NC(=S)Nc2ccc(Oc3ccnc4cc(-c5ccc(CN(C)CCO)cc5)sc34)c(F)c2)cc1`, for which the IC50 was above 10 µM in the test on DU145, below 0.05 µM at VEGF receptor KDR, above 10 µM in the test with A549 and 0.05 to 0.25 µM in test [1].

For `Cn1ccnc1-c1cc2nccc(Sc3ccc(NC(=S)NC(=O)Cc4ccccc4)cc3)c2s1`, the IC50 in the test on DU145 is below 1 µM; on VEGF receptor KDR, above 0.5 µM; in the test on A549 it was below 1 µM; in test [1], below 0.05 µM.

For `COCCNCc1cccc(-c2cc3nccc(Oc4ccc(NC(=S)NC(=O)Cc5ccc(F)cc5)cc4F)c3s2)n1`, the IC50 was below 1 µM in the test with DU145, 0.25 to 0.5 µM at VEGF receptor KDR, below 1 µM with A549 and below 0.05 µM in test [1].

`Cn1cnc(-c2cc3nccc(Oc4ccc(NC(=S)NC(=O)Cc5ccc(F)cc5)cc4F)c3s2)c1` [drawing 440]: the IC50 was below 1 µM in the test on DU145, below 0.05 µM on VEGF receptor KDR, below 1 µM in the test with A549 and below 0.05 µM in test [1].

Regarding `C#Cc1ccc(CC(=O)NC(=S)Nc2ccc(Oc3ccnc4cc(-c5nccn5C)sc34)c(F)c2)cc1F`, the IC50 in the test with DU145 was 1 to 5 µM; at VEGF receptor KDR, below 0.05 µM; in the test on A549, below 1 µM; in test [1], 0.05 to 0.25 µM.

On to `COc1ccccc1CC(=O)NC(=S)Nc1ccc(Oc2ccnc3cc(-c4cn(CC(N)=O)cn4)sc23)c(F)c1`, for which the IC50 in the test with DU145 was 1 to 5 µM; at VEGF receptor KDR, 0.05 to 0.25 µM; in the test on A549, above 10 µM; in test [1] it was 0.05 to 0.25 µM.

With `O=C(Cc1ccccc1)NC(=S)Nc1ccc(Oc2ccnc3cc(-c4cn(CCN5CCCC5)cn4)sc23)c(F)c1`, the IC50 was below 1 µM in the test on DU145, below 0.05 µM on VEGF receptor KDR, 5 to 10 µM in the test on A549 and below 0.05 µM in test [1].

Consider `COc1cccc(Nc2cc3nccc(Oc4ccc(NC(=S)NC(=O)Cc5ccccc5OC)cc4F)c3s2)c1`, for which the IC50 with DU145 was 1 to 5 µM; at VEGF receptor KDR it was above 0.5 µM; with A549 it was 1 to 5 µM; in test [1], 0.05 to 0.25 µM.

Regarding `C#Cc1ccc(CC(=O)NC(=S)Nc2ccc(Oc3ccnc4cc(-c5ccc(CN6CCN(C)CC6)cc5)sc34)c(F)c2)cc1`, the IC50 in the test with DU145 is 1 to 5 µM; on VEGF receptor KDR, below 0.05 µM; in the test with A549, above 10 µM; in test [1] it was 0.05 to 0.25 µM.

For `O=C(Cc1ccccc1)NC(=S)Nc1ccc(Nc2ccnc3ccsc23)c(F)c1`, the IC50 was 1 to 5 µM in the test with DU145, above 0.5 µM on VEGF receptor KDR, below 1 µM in the test with A549 and 0.05 to 0.25 µM in test [1].

For `C#Cc1ccccc1CC(=O)NC(=S)Nc1ccc(Oc2ccnc3cc(-c4cn(CCN5CCCC5)cn4)sc23)c(F)c1`, the IC50 is below 1 µM in the test on DU145, below 0.05 µM on VEGF receptor KDR, below 1 µM with A549 and below 0.05 µM in test [1].

Consider `O=C(Cc1ccccc1)NC(=S)Nc1ccc(Oc2ccnc3cc(-c4cccc[n+]4[O-])sc23)c(F)c1`, for which the IC50 with DU145 was below 1 µM; on VEGF receptor KDR, 0.05 to 0.25 µM; in the test with A549 it was below 1 µM; in test [1], below 0.05 µM.

`C#Cc1cc(F)ccc1CC(=O)NC(=S)Nc1ccc(Oc2ccnc3cc(-c4nccn4C)sc23)c(F)c1`: the IC50 in the test on DU145 is below 1 µM; at VEGF receptor KDR, below 0.05 µM; in the test on A549 it was below 1 µM; in test [1], below 0.05 µM.

As to `O=C(Cc1ccccc1)NC(=S)Nc1ccc(Oc2ccnc3cc(-c4ccc(CN5CCCC5)cn4)sc23)c(F)c1`, the IC50 was below 1 µM in the test with DU145, below 0.05 µM on VEGF receptor KDR, below 1 µM in the test on A549 and below 0.05 µM in test [1].

For the compound `Cc1ccccc1CC(=O)NC(=S)Nc1ccc(Oc2ccnc3cc(C4=CCN(C)CC4)sc23)c(F)c1`, the IC50 in the test on DU145 is below 1 µM; on VEGF receptor KDR, 0.25 to 0.5 µM; with A549 it was below 1 µM; in test [1], below 0.05 µM.

For `CCn1ccnc1-c1cc2nccc(Oc3ccc(NC(=S)NC(=O)Cc4ccc(F)cc4)cc3F)c2s1`, the IC50 in the test with DU145 is below 1 µM; at VEGF receptor KDR it was below 0.05 µM; with A549, below 1 µM; in test [1], below 0.05 µM.

As to `CCn1ccnc1-c1cc2nccc(Oc3ccc(NC(=S)NC(=O)Cc4ccc(F)cc4F)cc3F)c2s1`, the 50% inhibitory concentration (IC50) with DU145 is below 1 µM; on VEGF receptor KDR, 0.05 to 0.25 µM; in the test on A549 it was below 1 µM; in test [1], below 0.05 µM.

Regarding `C#Cc1cc2nccc(Oc3ccc(NC(=S)NC(=O)Cc4ccccc4)cc3F)c2s1`, the IC50 in the test with DU145 was 1 to 5 µM; at VEGF receptor KDR it was above 0.5 µM; in the test with A549 it was above 10 µM; in test [1], 0.05 to 0.25 µM.

In the case of `C#Cc1ccccc1CC(=O)NC(=S)Nc1ccc(Oc2ccnc3cc(-c4cccc[n+]4[O-])sc23)c(F)c1`, the IC50 was below 1 µM in the test on DU145, below 0.05 µM on VEGF receptor KDR, below 1 µM in the test with A549 and below 0.05 µM in test [1].

Turning to `C#Cc1ccccc1CC(=O)NC(=S)Nc1ccc(Oc2ccnc3cc(-c4cn(C)cn4)sc23)c(F)c1` [drawing 451], the IC50 is below 1 µM in the test with DU145, below 0.05 µM at VEGF receptor KDR, below 1 µM with A549 and below 0.05 µM in test [1].

Take `C#Cc1cc(F)ccc1CC(=O)NC(=S)Nc1ccc(Oc2ccnc3cc(-c4cn(C)cn4)sc23)c(F)c1`: the IC50 with DU145 was below 1 µM; at VEGF receptor KDR, below 0.05 µM; in the test with A549 it was below 1 µM; in test [1], below 0.05 µM.

Turning to `CN1CCN(Cc2ccc(-c3cc4nccc(Oc5ccc(NC(=S)NC(=O)Cc6ccccc6)cc5F)c4s3)cc2)CC1`, the IC50 in the test on DU145 was below 1 µM; at VEGF receptor KDR, below 0.05 µM; in the test on A549 it was below 1 µM; in test [1] it was below 0.05 µM.

On to `CN(CCO)Cc1ccc(-c2cc3nccc(Oc4ccc(NC(=S)NC(=O)Cc5ccccc5)cc4F)c3s2)cc1`, for which the 50% inhibitory concentration (IC50) is below 1 µM with DU145, below 0.05 µM on VEGF receptor KDR, below 1 µM in the test on A549 and below 0.05 µM in test [1].

In the case of `Cc1ccccc1CC(=O)NC(=S)Nc1ccc(Oc2ccnc3cc(-c4nccn4C)sc23)c(F)c1`, the IC50 in the test with DU145 is below 1 µM; at VEGF receptor KDR, below 0.05 µM; with A549 it was below 1 µM; in test [1], below 0.05 µM.

Turning to `Cn1cnc(-c2cc3nccc(Nc4ccc(NC(=S)NC(=O)Cc5ccccc5)cc4F)c3s2)c1`, the IC50 with DU145 was below 1 µM; at VEGF receptor KDR, above 0.5 µM; in the test with A549, below 1 µM; in test [1], below 0.05 µM.

Turning to `C#Cc1ccccc1CC(=O)NC(=S)Nc1ccc(Oc2ccnc3cc(-c4cn(CC)cn4)sc23)c(F)c1` [drawing 455], the half-maximal inhibitory concentration (IC50) in the test on DU145 was below 1 µM; on VEGF receptor KDR, below 0.05 µM; with A549 it was below 1 µM; in test [1] it was below 0.05 µM.

Consider `CCNC(=O)N1CCN(Cc2ccc(-c3cc4nccc(Oc5ccc(NC(=S)NC(=O)Cc6ccccc6)cc5F)c4s3)cc2)CC1`, for which the IC50 in the test on DU145 was below 1 µM; on VEGF receptor KDR it was below 0.05 µM; in the test with A549, below 1 µM; in test [1] it was below 0.05 µM.

Broadly, the IC50 is the concentration at which inhibition is half-maximal.
